Measured values reported in patent publication US4123546A, “Antidepressant compounds” (E. I. Du Pont de Nemours and Company, priority 1977, dated 1978).
Where a name gives a salt, the structure may show the parent alone. Read-outs that look alike come from different tables or passages of the source.

How the values were obtained:
[1] = system: tetrabenazine-induced depression; test: prevention of tetrabenazine-induced sedation and depression in mice (exploratory activity and ptosis); assay type: in vivo, Carworth CF1 S female mice; conditions: for ED50: Mus musculus, po; for ED50 Ptosis / ED50 Exploratory: 60 min
Excerpt: A standard procedure for detecting and comparing the antidepressant activity of compounds in this series for which there is good correlation with human efficacy is the prevention of tetrabenazine-induced sedation and depression in mice. (Everett, "The Dopa Response Potentiation Test and Its Use in Screening for Antidepressant Drugs", pp. 164-167 in "Antidepressant Drugs" [Proceedings of the First International Symposium], S. Garattini and M. N. G. Dukes, eds., 1967.).
Groups of 10 Carworth CF1 S female mice, 18-21 g. each, were fasted 1.5 hours and were intubated with antagonist compounds at oral doses of 0, 5, 25, and 125 mg/kg or 0, 1, 3, 9, 27, and 81 mg/kg in 0.20 ml. of 1% Methocel (methylcellulose) 1.25% Tween 80. The mice were challenged 30 minutes later with tetrabenazine (as the methane-sulfonate), 32 mg/kg intraperitoneally (dissolved in 0.20 ml. 0.05M KCl at pH 2.0). One hour after antagonist (30 minutes after tetrabenazine), the mice were examined for signs of exploratory activity and ptosis (eyelid closure). Normal exploratory activity (relief from sedation) was recorded when a mouse lifted by the tail from a group of 10 in a testing box and placed on a stainless steel testing box lid (12.5" × 8" with 0.33" mesh) either turned its head horizontally 30° in both direction or moved to the edge of the screen within 10 seconds after being placed on the screen. Relief from ptosis was recorded when exactly 2 seconds after placing the mouse facing the observer, lid closure was less than 50% in both eyes.
For comparison, the marketed antidepressant Amitriptyline was also tested, and an ED50 (effective dose in 50% of the cases) was determined. The lower the ED50, the better the antidepressant.

monoamine oxidase (MAO) = test: tryptamine potentiation in mice (monoamine oxidase inhibition); assay type: in vivo
Excerpt: (§1) An antidepressant which acts by inhibiting MAO is not acceptable.

[2] = system: hexabarbitol potentiation; test: hexabarbitol potentiation in mice (sedative qualities); assay type: in vivo
Excerpt: as §1

[3] = Table I, orally, 1 hour post-drug, tetrabenazine 32 mg/kg i.p. 30 min after drug, relief from ptosis
[4] = Table I, orally, 1 hour post-drug, tetrabenazine 32 mg/kg i.p. 30 min after drug, relief from sedation (exploratory activity)
[5] = Table II (formula II compounds), orally, 1 hour post-drug, relief from ptosis, read-out: ED50 Ptosis
[6] = Table II (formula II compounds), orally, 1 hour post-drug, relief from sedation (exploratory activity), read-out: ED50 Exploratory

SMILES	ED50 Ptosis [1, 3] [mg/kg]	ED50 Exploratory [1, 4] [mg/kg]	ED50 [1, 5] [mg/kg]	ED50 [1, 6] [mg/kg]	other results
CN(C)CCC=C1c2ccccc2CCc2ccccc21 [Amitriptylene . HCl, reference compound]	–	–	–	–	ED50 ([1]; Table I, orally, 1 hour post-drug, tetrabenazine 32 mg/kg i.p. 30 min after drug, relief from ptosis, read-out: ED50 Ptosis): 1.5 mg/kg; ED50 ([1]; Table I, orally, 1 hour post-drug, tetrabenazine 32 mg/kg i.p. 30 min after drug, relief from sedation (exploratory activity), read-out: ED50 Exploratory): 3.7 mg/kg
CN(C)CCCOC12c3ccccc3C3C(c4ccccc41)N32 (stereo not drawn) [CH2 CH2 CH2 N(CH3)2, 3-[(4b, 4c-Dihydro-8bH-azirino[2,1,3-cd]dibenzo[a,f]-pyrrolizin-8b-yl)oxy]propyl-N,N-dimethylamine]	–	–	–	–	ED50 ([1]; 1 h, read-out: ED50 Exploratory, Table I, orally, 1 hour post-drug, tetrabenazine 32 mg/kg i.p. 30 min after drug, relief from sedation (exploratory activity)): 67 mg/kg; ED50 ([1]; 1 h, read-out: ED50 Ptosis, Table I, orally, 1 hour post-drug, tetrabenazine 32 mg/kg i.p. 30 min after drug, relief from ptosis): 56 mg/kg
CN(C)CCOC12c3ccccc3C3C(c4ccccc41)N32 (stereo not drawn) [CH2 CH2 N(CH3)2 . Maleate, 2-[4b, 4c-Dihydro-8bH-azirino[2,1,3-cd]dibenzo[a,f]pyrrolizin-8b-yl)oxy]ethyl-N,N-dimethylamine Maleate]	8	9	–	–	–
CN(C)CCOC12NC(c3ccccc31)C(Cl)c1ccccc12 (stereo not drawn) [CH2 CH2 N(CH3)2 H Cl, 10,11-Dihydro-5,10-imino-5-[2-(N,N-dimethylamino)-ethoxy]-11-chloro-5H-dibenzo[a,d]cycloheptene]	–	–	15	25	–
CN(C)CCOC12NC(Cc3ccccc31)c1ccccc12 (stereo not drawn) [CH2 CH2 N(CH3)2 H H, 10,11-Dihydro-5,10-imino-5-[2-(N,N-dimethylamino)-ethoxy]-5H-dibenzo[a,d]cycloheptene]	–	–	15	15	–
CN(C)CCOC12c3ccccc3C3C(c4ccccc41)N32 (stereo not drawn) [CH2 CH2 N(CH3)2, 2-[(4b, 4c-Dihydro-8bH-azirino[2,1,3-cd]dibenzo[a,f]pyrrolizin-8b-yl)oxy]ethyl-N,N-dimethylamine]	2	2	–	–	monoamine oxidase (MAO) inhibition (monoamine oxidase (MAO); implied by lack of tryptamine potentiation in mice): not a monoamine oxidase (MAO) inhibitor; potentiation of tryptamine (monoamine oxidase (MAO); in mice): not to potentiate tryptamine in mice; sedative qualities ([2]; implied by hexabarbitol potentiation in mice, at high doses): sedative qualities at high doses; potentiation of hexabarbitol ([2]; in mice): potentiates hexabarbitol in mice
NCCOC12c3ccccc3C3C(c4ccccc41)N32 (stereo not drawn) [CH2 CH2 NH2 . Maleate]	10.3	11.8	–	–	–
NCCOC12c3ccccc3C3C(c4ccccc41)N32 (stereo not drawn) [CH2 CH2 NH2 . Tartate]	2.7	3.3	–	–	–
NCCOC12NC(c3ccccc31)C(Cl)c1ccccc12 (stereo not drawn) [CH2 CH2 NH2 H Cl, 10,11-Dihydro-5,10-imino-5-(2-aminoethoxy)-11-chloro-5H-dibenzo[a,d]cycloheptene]	–	–	37	37	–
NCCOC12c3ccccc3C3C(c4ccccc41)N32 (stereo not drawn) [CH2 CH2 NH2]	1	2	–	–	–
